The values below come from US20090088483A1, “AQUEOUS SUSPENSIONS OR DISPERSIONS OF INORGANIC PIGMENTS CONTAINING A MIXTURE CONSISTING OF DIALDEHYDES AND FORMALDEHYDE CLEAVERS” (priority 2005, published 2009).

Some results are limits rather than exact numbers.

Series [1] deals with microbially contaminated (alkaline) slurry. The settings on record: cited from earlier work.
Series [2] has as its system microbe spectrum of a microbially contaminated slurry. Nature of the series: quantitative test of microbial count reduction in a microbially contaminated slurry. The class given is cell-based. The arrangement: unit not given here. To be noted: PCC slurry. On the procedure:
Here, the quantitative test was carried out to determine how rapidly (1 hour to 7 days) the stated amounts of active substance reduce the microbial count of a microbially contaminated slurry.

For series [3] the following is noted: cited from earlier work.

For the compound `O=CCCCC=O` [GDA, glutaraldehyde], the “time to sanitize a microbially contaminated (alkaline) slurry” value in series [1] is 1 to 4 h. Also, the microbial count in series [2] (10 ppm GDA, 1 hour) was 1.2 * 10^5; in series [2] (10 ppm GDA, 2 hours), 1.3 * 10^4; in series [2] (10 ppm GDA, 3 hours) it was 2.6 * 10^3; in series [2] (10 ppm GDA, 24 hours), below 100; in series [2] (10 ppm GDA, 3 days), 4.7 * 10^2; in series [2] (10 ppm GDA, 7 days), 3.5 * 10^5. For the same compound, the microbial count is 2.2 * 10^3 in series [2] (20 ppm GDA, 1 hour); 3.0 * 10^2 in series [2] (20 ppm GDA, 2 hours); below 100 in series [2] (20 ppm GDA, 3 hours); below 100 in series [2] (20 ppm GDA, 24 hours); below 100 in series [2] (20 ppm GDA, 3 days); 1.7 * 10^3 in series [2] (20 ppm GDA, 7 days). Besides, in series [3] (in the slurry after a few days), the “degradation of active substance in the slurry” value is on record as “completely degraded”.

On to `OCOCCOCO` [EDDM, (ethylenedioxy)dimethanol], for which the microbial count in series [2] (100 ppm EDDM, 1 hour) is reported as 1.6 * 10^5; in series [2] (100 ppm EDDM, 2 hours), 1.7 * 10^5; in series [2] (100 ppm EDDM, 3 hours), 1.6 * 10^5; in series [2] (100 ppm EDDM, 24 hours), 3.4 * 10^4; in series [2] (100 ppm EDDM, 3 days), 3.3 * 10^4; in series [2] (100 ppm EDDM, 7 days) it was 5.6 * 10^3. Besides, the microbial count is reported as 1.6 * 10^5 in series [2] (200 ppm EDDM, 1 hour); 1.1 * 10^5 in series [2] (200 ppm EDDM, 2 hours); 1.2 * 10^5 in series [2] (200 ppm EDDM, 3 hours); 2.9 * 10^4 in series [2] (200 ppm EDDM, 24 hours); 2.3 * 10^4 in series [2] (200 ppm EDDM, 3 days); 1.7 * 10^3 in series [2] (200 ppm EDDM, 7 days). Further, in series [3] (50-80° C., over a period of a few days, alkaline pH), the “decline in active substance at elevated temperatures” value is “no significant decline”.
